Measured values: patent US8754038B2, “Template-fixed peptidomimetics with CCR10 antagonistic activity” (priority 2009, dated 2014)
Square brackets hold non-standard residues; d marks the D form. Peptide text beside a SMILES is read from it. * marks the point of attachment. Pro(cis-4-Ph) = O=C(O)[C@@H]1C[C@H](c2ccccc2)CN1; Phe(4-CF3) = N[C@@H](Cc1ccc(C(F)(F)F)cc1)C(=O)O; Pro(4R-Bn) = O=C(O)[C@@H]1C[C@@H](Cc2ccccc2)CN1; Trp(5-OH) = N[C@@H](Cc1c[nH]c2ccc(O)cc12)C(=O)O; Phe(4-CN) = N#Cc1ccc(C[C@H](N)C(=O)O)cc1; Phe(4-Cl) = N[C@@H](Cc1ccc(Cl)cc1)C(=O)O; Pro(cis-4-F) = O=C(O)[C@@H]1C[C@H](F)CN1; Tic(7-OH) = O=C(O)[C@@H]1Cc2ccc(O)cc2CN1; 2Nal = N[C@@H](Cc1ccc2ccccc2c1)C(=O)O; Thz(5,5-Me2) = CC1(C)SCN[C@@H]1C(=O)O; cisHyp = O=C(O)[C@@H]1C[C@H](O)CN1; Hyp = O=C(O)[C@@H]1C[C@@H](O)CN1; Tic = O=C(O)[C@@H]1Cc2ccccc2CN1; Benzyl(4-Br) = Brc1ccc(C*)cc1; Pip = O=C(O)[C@@H]1CCCCN1; dPip = O=C(O)[C@H]1CCCCN1; Thz = O=C(O)[C@@H]1CSCN1; Ac5c = NC1(C(=O)O)CCCC1; Dab = NCC[C@H](N)C(=O)O; dAze = O=C(O)[C@H]1CCN1; Aib = CC(C)(N)C(=O)O; Bn = c1ccc(C*)cc1

How the values were obtained:
human CCR10 [1] = target: T1, human CCR10 (Homo sapiens, UniProt P46092); test: Calcium flux assay (CCR10 antagonism, CCL27 as agonist); format: cell-based; conditions: CCR10 transfected 300-19 murine pre-B cells; CCL27 30 nM
T1 construct: expressed in transfected cells
T1 sequence (P46092 1-362): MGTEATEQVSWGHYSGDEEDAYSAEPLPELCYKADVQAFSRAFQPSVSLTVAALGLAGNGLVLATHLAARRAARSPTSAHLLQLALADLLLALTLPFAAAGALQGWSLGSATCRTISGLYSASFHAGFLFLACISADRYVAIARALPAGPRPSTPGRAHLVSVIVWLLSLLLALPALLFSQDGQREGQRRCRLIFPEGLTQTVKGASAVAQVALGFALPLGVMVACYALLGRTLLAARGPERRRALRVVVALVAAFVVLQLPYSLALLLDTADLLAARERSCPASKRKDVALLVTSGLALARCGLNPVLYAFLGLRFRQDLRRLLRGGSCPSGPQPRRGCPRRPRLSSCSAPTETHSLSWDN
Procedure: (§1) Lyophilized peptides were weighed on a Microbalance (Mettler MX5) and dissolved in aqueous 90% DMSO to a final concentration of 10 mM unless otherwise stated. Stock solutions were kept at +4° C., and protected from light.
(§2) Peptides were assayed for CCR10 antagonism in a calcium flux assay and in a chemotaxis assay using a mouse pre-B cell line 300-19 stably transfected with human CCR10, and with human CCL27 as agonist.
The calcium flux release was assessed using CCR10 transfected 300-19 murine pre-B cells. These cells were labeled as a batch with Calcium4 Reagent (Molecular Devices, Sunnyvale, Calif.) in HBSS buffer for 60 min.
After dispensing 8×10^4 cells in each well of a 384-well black plate, a concentrated solution of the β-hairpin peptidomimetics of this invention in HBSS+0.1% BSA+0.1% DMSO (final concentration) was added to the cells. The entire plate was centrifuged and placed in a Flexstation II (Molecular Devices) automated plate reader. After reading a 20 s baseline, the Flexstation dispensed CCL27 (RnD systems) at a final concentration of 30 nM in HBSS+0.1% BSA onto the cells and calcium flux was measured for an additional 70 s.
Alternatively a FIipR384 (Molecular Devices) was used for read out of the 384-well plates. In this case about 8×10^4 cells were placed in each well, centrifuged, placed in the FlipR and after 5 s of baseline reading, the β-hairpin peptidomimetics in HBSS+0.1% BSA+0.1% DMSO (final concentration) were added. After an incubation time of 5 min, the CCL27 solution was added to the mixture and the calcium flux was measured for 200 s.
The maximum signal was determined from control wells without inhibitor. Percentage of inhibition was calculated from a range of compound concentrations, which were subsequently used to calculate IC50 values (Softmax Pro, Molecular Devices). All steps were carried out at room temperature.

human CCR10 [2] = target: T1, human CCR10; test: Chemotaxis assay (CCR10-transfected 300-19 cells, CCL27 gradient); format: cell-based; conditions: CCR10-transfected 300-19 murine pre-B cells; 30 nM CCL27 gradient
Procedure: as §1, §2
The chemotactic response of CCR10-transfected 300-19 murine pre-B cells to a gradient of CCL27 (CTACK) was measured using disposable Transwell® assay plates from Costar (5 μm pore size) according to the protocol of the manufacturer. Briefly, cells were grown under sterile conditions at 37° C. with 5% CO2 in flasks containing RPMI+5% FCS, glutamine, penicillin/streptomycin (all media components were from Life Technologies) and the appropriate selection antibiotics (Puromycin, G418 or Tetracycline). For the assay, cells were pelleted by centrifugation, washed once in Dulbecco's phosphate buffered saline (DPBS), and resuspended to give 1×10^6 cells/ml in RPMI+0.5% bovine serum albumin (BSA). 100 μl of cell suspension was applied to the top of the assay filter. The β-hairpin peptidomimetics, diluted in the same assay medium, were added to both top and bottom chambers. The cells were allowed to migrate for 4-6 hours at 37° C. into the bottom chamber of the assay plate containing 30 nM of CCL27 (RnD systems). Migrated cells were counted using a FACS cytometer (Cytomics FC500, Beckman Coulter). Data normalization was performed using the number of any cells that had migrated in the absence of the β-hairpin peptidomimetic and the number of cells that have randomly migrated in absence of CCL27 [these values were taken as 100% (no inhibitory activity) and 0%, respectively]. From a range of compound concentrations IC50 were determined using Prism5 (GraphPad software).

IC50 (human CCR10 [1]) [nM]	IC50 (human CCR10 [2]) [nM]	Structure (SMILES)
226 ± 187	94	CC1(C)NC(=O)[C@H](Cc2c[nH]c3ccccc23)NC(=O)[C@@H]2Cc3ccccc3CN2C(=O)[C@H]2CCCN2C(=O)[C@H](CCCNC(=N)N)NC(=O)[C@H](Cc2c[nH]c3ccccc23)NC1=O [Ex. 1, cyclo(-Trp-Aib-Trp-Arg-^DPro-Tic-)] (cyclo([Aib]WR[dP][Tic]W))
200 ± 56.5	21.6	CC1(C)NC(=O)[C@H](Cc2c[nH]c3ccccc23)NC(=O)[C@@H]2Cc3ccccc3CN2C(=O)[C@H]2CCCN2C(=O)[C@H](CCN)NC(=O)[C@H](Cc2c[nH]c3ccccc23)NC1=O [Ex. 2, cyclo(-Trp-Aib-Trp-Dab-^DPro-Tic-)] (cyclo([Aib]W[Dab][dP][Tic]W))
78.5 ± 38.6		N=C(N)NCCC[C@@H]1NC(=O)[C@H](Cc2c[nH]c3ccccc23)NC(=O)C2(CCCC2)NC(=O)[C@H](Cc2c[nH]c3ccccc23)NC(=O)[C@@H]2Cc3ccc(O)cc3CN2C(=O)[C@H]2CCCN2C1=O [Ex. 3, cyclo(-Trp-Cyp-Trp-Arg-^DPro-Tic(7OH)—)] (cyclo([Ac5c]WR[dP][Tic(7-OH)]W))
860 ± 382	42	NCC[C@@H]1NC(=O)[C@H](Cc2c[nH]c3ccccc23)NC(=O)C2(CCCC2)NC(=O)[C@H](Cc2c[nH]c3ccccc23)NC(=O)[C@@H]2C[C@H](F)CN2C(=O)[C@H]2CCCN2C1=O [Ex. 4, cyclo(-Trp-Cyp-Trp-Dab-^DPro-Pro((4S)F)—)] (cyclo([Ac5c]W[Dab][dP][Pro(cis-4-F)]W))
70.6 ± 20.1		N=C(N)NCCC[C@@H]1NC(=O)[C@H](Cc2c[nH]c3ccccc23)NC(=O)C2(CCCC2)NC(=O)[C@H](Cc2c[nH]c3ccccc23)NC(=O)[C@@H]2CSCN2C(=O)[C@H]2CCCN2C1=O [Ex. 5, cyclo(-Trp-Cyp-Trp-Arg-DPro-Thz-)] (cyclo([Ac5c]WR[dP][Thz]W))
144 ± 84.1	3.1	NC(=O)CC[C@@H]1NC(=O)[C@H](Cc2c[nH]c3ccccc23)NC(=O)C2(CCCC2)NC(=O)[C@H](Cc2c[nH]c3ccc(O)cc23)NC(=O)[C@@H]2CSCN2C(=O)[C@H]2CCCN2C1=O [Ex. 7, cyclo(-Trp(5OH)-Cyp-Trp-Gln-^DPro-Thz-)] (cyclo([Trp(5-OH)][Ac5c]WQ[dP][Thz]))
52.5 ± 3.5		N=C(N)NCCC[C@@H]1NC(=O)[C@H](Cc2c[nH]c3ccccc23)NC(=O)C2(CCCC2)NC(=O)[C@H](Cc2c[nH]c3ccc(O)cc23)NC(=O)[C@@H]2Cc3ccccc3CN2C(=O)[C@H]2CCCN2C1=O [Ex. 8, cyclo(-Trp(5OH)-Cyp-Trp-Arg-^DPro-Tic-)] (cyclo([Ac5c]WR[dP][Tic][Trp(5-OH)]))
9.2 ± 3.6	2	NC(=O)CC[C@@H]1NC(=O)[C@H](Cc2c[nH]c3ccccc23)NC(=O)C2(CCCC2)NC(=O)[C@H](Cc2ccc3ccccc3c2)NC(=O)[C@@H]2Cc3ccccc3CN2C(=O)[C@H]2CCCN2C1=O [Ex. 9, cyclo(-2NaI-Cyp-Trp-Gln-^DPro-Tic-)] (cyclo([2Nal][Ac5c]WQ[dP][Tic]))
43.2 ± 44.9	9.7	NCC[C@@H]1NC(=O)[C@H](Cc2c[nH]c3ccccc23)NC(=O)C2(CCCC2)NC(=O)[C@H](Cc2ccc3ccccc3c2)NC(=O)[C@@H]2CCCCN2C(=O)[C@H]2CCCCN2C1=O [Ex. 10, cyclo(-2NaI-Cyp-Trp-Dab-^DPip-Pip-)] (cyclo([2Nal][Ac5c]W[Dab][dPip][Pip]))
70.4 ± 19.2		N=C(N)NCCC[C@@H]1NC(=O)[C@H](Cc2c[nH]c3ccccc23)NC(=O)C2(CCCC2)NC(=O)[C@H](Cc2c[nH]c3ccccc23)NC(=O)[C@@H]2Cc3ccccc3CN2C(=O)[C@H]2CCN2C1=O [Ex. 25, cyclo(-Trp-Cyp-Trp-Arg-^DAze-Tic-)] (cyclo([Ac5c]WR[dAze][Tic]W))
57 ± 26.4		NCC[C@@H]1NC(=O)[C@H](Cc2c[nH]c3ccccc23)NC(=O)C2(CCCC2)NC(=O)[C@H](Cc2c[nH]c3ccccc23)NC(=O)[C@@H]2Cc3ccccc3CN2C(=O)[C@H]2CCN2C1=O [Ex. 26, cyclo(-Trp-Cyp-Trp-Dab-^DAze-Tic-)] (cyclo([Ac5c]W[Dab][dAze][Tic]W))
214 ± 106	109	CC1(C)SCN2C(=O)[C@H]3CCCN3C(=O)[C@H](CCCNC(=N)N)NC(=O)[C@H](Cc3c[nH]c4ccccc34)NC(=O)C3(CCCC3)NC(=O)[C@H](Cc3c[nH]c4ccc(O)cc34)NC(=O)[C@@H]21 [Ex. 29, cyclo(-Trp(5OH)-Cyp-Trp-Arg-^DPro-Thz(5,5Me2)-)] (cyclo([Ac5c]WR[dP][Thz(5,5-Me2)][Trp(5-OH)]))
14.8 ± 12	22	NCC[C@@H]1NC(=O)[C@H](Cc2c[nH]c3ccccc23)NC(=O)C2(CCCC2)NC(=O)[C@H](Cc2ccc(C(F)(F)F)cc2)NC(=O)[C@@H]2C[C@H](c3ccccc3)CN2C(=O)[C@H]2CCCCN2C1=O [Ex. 37, cyclo(-Phe(4CF3)—Cyp-Trp-Dab-^DPip-Pro((4R)Ph)-)] (cyclo([Ac5c]W[Dab][dPip][Pro(cis-4-Ph)][Phe(4-CF3)]))
26.1 ± 8.1	2.3	NCC[C@@H]1NC(=O)[C@H](Cc2c[nH]c3ccccc23)NC(=O)C2(CCCC2)NC(=O)[C@H](Cc2c[nH]c3ccccc23)NC(=O)[C@@H]2C[C@@H](Cc3ccccc3)CN2C(=O)[C@H]2CCCN2C1=O [Ex. 38, cyclo(-Trp-Cyp-Trp-Dab-^DPro-Pro((4R)Bn)-)] (cyclo([Ac5c]W[Dab][dP][Pro(4R-Bn)]W))
39.9 ± 34.8		NCC[C@@H]1NC(=O)[C@H](Cc2ccc(Cl)cc2)NC(=O)C2(CCCC2)NC(=O)[C@H](Cc2c[nH]c3ccccc23)NC(=O)[C@@H]2C[C@@H](OCc3ccccc3)CN2C(=O)[C@H]2CCCN2C1=O [Ex. 43, cyclo(-Trp-Cyp-Phe(4Cl)-Dab-^DPro-Hyp(Bn)-)] (cyclo([Ac5c][Phe(4-Cl)][Dab][dP][Hyp](Bn)W))
260 ± 154	60.1	NCC[C@@H]1NC(=O)[C@H](Cc2c[nH]c3ccccc23)NC(=O)C2(CCCC2)NC(=O)[C@H](Cc2c[nH]c3ccccc23)NC(=O)[C@@H]2C[C@H](OCc3ccccc3)CN2C(=O)[C@H]2CCCN2C1=O [Ex. 51, cyclo(-Trp-Cyp-Trp-Dab-^DPro-(4S)-Hyp(Bn)-)] (cyclo([Ac5c]W[Dab][dP][cisHyp](Bn)W))
22.6 ± 13.6		NCC[C@@H]1NC(=O)[C@H](Cc2c[nH]c3ccccc23)NC(=O)C2(CCCC2)NC(=O)[C@H](Cc2ccc(C(F)(F)F)cc2)NC(=O)[C@@H]2C[C@@H](OCc3ccc(Br)cc3)CN2C(=O)[C@H]2CCCN2C1=O [Ex. 54, cyclo(-Phe(4CF3)-Cyp-Trp-Dab-^DPro-Hyp(4BrBn)-)] (cyclo([Ac5c]W[Dab][dP][Hyp](Benzyl(4-Br))[Phe(4-CF3)]))
190 ± 89.8		NCC[C@@H]1NC(=O)[C@H](Cc2c[nH]c3ccccc23)NC(=O)C2(CCCC2)NC(=O)[C@H](Cc2c[nH]c3ccccc23)NC(=O)[C@@H]2C[C@@H](O)CN2C(=O)[C@H]2CCCN2C1=O [Ex. 103, cyclo(-Trp-Cyp-Trp-Dab-^DPro-Hyp-)] (cyclo([Ac5c]W[Dab][dP][Hyp]W))
21.7 ± 3.9		N#Cc1ccc(C[C@@H]2NC(=O)[C@@H]3C[C@@H](OCc4ccccc4)CN3C(=O)[C@H]3CCCN3C(=O)[C@H](CCC(N)=O)NC(=O)[C@H](Cc3c[nH]c4ccccc34)NC(=O)C3(CCCC3)NC2=O)cc1 [compound 47, cyclo(-Phe(4CN)-Cyp-Trp-Gln-^DPro-Hyp(Bn)-)] (cyclo([Ac5c]WQ[dP][Hyp](Bn)[Phe(4-CN)]))
